{"source": "patent US20090240048A1", "about": "“Alpha-crystalline form of substituted selenoxanthenes and the method of its preparation” (MEDBIOPHARM LTD, priority 2008, published 2009)", "key": {"[1]": {"assay": "Angle of repose (flowability) of powder", "type": "physicochemical"}, "Storage life": {"assay": "Storage life", "type": "physicochemical"}}}
{"smiles": "c1ccc(C2C3=C(CCCC3)[Se]C3=C2CCCC3)cc1", "note": "[9-phenyl-symmetrical-octahydroselenoxanthene]", "values": [{"measurement": "Angle of repose", "setting": "[1]", "value": 52, "unit": "°"}, {"measurement": "Storage life", "setting": "Storage life", "value": 6, "unit": "months"}]}
